Patent publication US8828990B2, “N-7 substituted purine and pyrazolopyrimine compounds, compositions and methods of use” (priority 2009, dated 2014)
Read-outs that look alike come from different tables or passages of the source.

Experiments:
PI3K-alpha = target: T1, PI3K-alpha (Homo sapiens, UniProt P42336); type: biochemical
T1 construct: purchased Upstate Cell Signaling Solutions
Experimental: The kinase activity of mTOR enzyme is assessed by incubating purified recombinant enzyme (mTOR(1360-2549)+GBL, prepared in-house) in a reaction mixture containing ATP, MnCl2, and a fluorescently labeled mTOR substrate, e.g., GFP-4E-BP1 (Invitrogen, product #PR8808A). The reaction is stopped by an addition of a Terbium-labeled phospho-specific antibody, e.g., Tb-labeled anti-p4E-BP1 T37/T46, (Invitrogen, product #PR8835A), EDTA, and TR-FRET buffer solution (Invitrogen, Product #PR3756B). Product formation is detected by way of time-resolved fluorescence resonance energy transfer (TR-FRET), which occurs when the phosphorylated substrate and labeled antibody are in close proximity due to phospho-specific binding. Enzymatic activity is measured as an increase in TR-FRET signal using a Perkin Elmer Envision plate reader. The assay is performed in a 384-well Proxiplate Plus (Perkin Elmer. Product #6008269) using the following protocol:
(§1) Compound activity is tested in 10 point dose curves starting at the highest final concentration of 10 uM. They are serially diluted in 100% DMSO prior to further dilution with assay buffer. The reaction mixture (8 uls) containing 0.25 nM mTOR+GBL enzyme, 400 nM GFP-4E-BP1, 8 uM ATP, 50 mM Hepes pH 7.5, 0.01% Tween 20, 10 mM MnCl2, 1 mM EGTA, 1 mM DTT, 1% DMSO (+/−compound) is incubated at room temperature for 30 minutes. 8 μL of solution containing 2 nM Tb-anti-p4E-BP1 antibody & 10 mM EDTA diluted TR-FRET buffer is then added and incubated for 30 minutes to stop the reaction. The plate is scanned with the Envision plate reader. Ki values are calculated in Assay Explorer using the Morrison ATP-competitive tight binding equation for Ki apparent determination.
Binding Assays: Initial polarization experiments were performed on an Analyst HT 96-384 (Molecular Devices Corp, Sunnyvale, Calif.). […] After an incubation time of 30 minutes at room temperature, the reactions were stopped by the addition of GRP-1 and PIP3-TAMRA probe (Echelon-Inc., Salt Lake City, Utah) 100 nM and 5 nM final concentrations respectively. […] This experiment also establishes the appropriate protein concentration to use in subsequent competition experiments with inhibitors.
After an incubation time of 30 minutes at room temperature, the reactions were stopped by the addition of GRP-1 and PIP3-TAMRA probe (Echelon-Inc., Salt Lake City, Utah) 100 nM and 5 nM final concentrations respectively.

[1] = target: T2, mTOR kinase (mTOR(1360-2549)+GBL) (Homo sapiens, UniProt P42345); assay: In vitro mTOR kinase assay (TR-FRET); type: biochemical; conditions: read-out: activity level (Ki) in the mTOR kinase assay
T2 construct: mTOR(1360-2549)+GBL, prepared in-house; made in house
Experimental: The reaction is stopped by an addition of a Terbium-labeled phospho-specific antibody, e.g., Tb-labeled anti-p4E-BP1 T37/T46, (Invitrogen, product #PR8835A), EDTA, and TR-FRET buffer solution (Invitrogen, Product #PR3756B). Product formation is detected by way of time-resolved fluorescence resonance energy transfer (TR-FRET), which occurs when the phosphorylated substrate and labeled antibody are in close proximity due to phospho-specific binding. Enzymatic activity is measured as an increase in TR-FRET signal using a Perkin Elmer Envision plate reader.
as §1, with “The reaction mixture (8 uls) containing 0.25 nM mTOR+GBL enzyme, 400 nM GFP-4E-BP1, 8 uM ATP, 50 mM Hepes pH 7.5, 0.01% Tween 20, 10 mM MnCl2, 1 mM EGTA, 1 mM DTT, 1% DMSO (+/−compound) is incubated at room temperature for 30 minutes.” left out

PC3 cells = assay: In vitro cell proliferation assay; type: cell-based; conditions: Homo sapiens
Experimental: Efficacy of Formula I compounds were measured by a cell proliferation assay employing the following protocol: 1. An aliquot of 20 μl of cell culture containing about 10^3 cells (PC3 or MDAMB361.1) in medium was deposited in each well of a 384-well, opaque-walled plate. 2. Control wells were prepared containing medium and without cells; Cells were allowed to settle overnight. 3. The compound was added to the experimental wells and incubated for 3 days. 4. The plates were equilibrated to room temperature for approximately 30 minutes. 5. A volume of CellTiter-Glo Reagent equal to the volume of cell culture medium present in each well was added. 6. The contents were mixed for 2 minutes on an orbital shaker to induce cell lysis. 7. The plate was incubated at room temperature for 20 minutes to stabilize the luminescence signal. […] Luminescence was recorded and reported in graphs as RLU=relative luminescence units. Alternatively, cells were seeded at optimal density in a 96 well plate and incubated for 4 days in the presence of test compound. […] IC50 values were calculated using a sigmoidal dose response curve fit.

[2] = tested on: AKT serine-473 phosphorylation in EGF-stimulated PC-3 cells; assay: In vitro phospho-AKT serine 473 cellular assay; type: cell-based; conditions: Homo sapiens
Experimental: The PC-3 cell line is maintained in RPMI1640 media supplemented with 10% FBS, 2 mM Glutamine, and 10 mM HEPES pH 7.4 at 37° C. in a 5% CO2 humidified incubator.
Cells are seeded in 384-well plates at 7,000 cells/well in […] growth media. After 24 hours, growth media is removed and replaced with RPMI1640 containing no FBS. Cells are treated with 10 concentrations of test compounds or DMSO alone for controls (final DMSO concentration 0.5%) and incubated at 37° C. for 30 minutes. Cells are then stimulated for 10 minutes with 100 ng/ml EGF (final concentration). One column of controls is not stimulated with EGF to observe the signal ratio between stimulated and non-stimulated cells. After 10 minutes, compounds and stimulation media are removed and replaced with 25 μl lysis buffer containing protease inhibitors and phosphatase inhibitors. This buffer contains detergent to bring about cellular disruption. […] Following the transfer of lysate to the MSD plate, AKT in the lysate is captured on the coated antibody by incubation on a shaker at 4° C. for 16 hours. Following the capture step the plate is washed and then incubated for two hours with an antibody to S473 phosphorylated AKT which is conjugated with a Sulfo-Tag. This tag gives a signal when in proximity to the electrode on the base of the MSD plate. Binding the tagged antibody to the captured protein allow detection on a MSD reader.
EC50 values are calculated using MDL Assay Explorer 3.0.1.8 fitting a sigmoidal curve with a variable slope.

[3] = PC-3, with PC3 cells, read-out: IC50 value, cell proliferation
[4] = recombinant mTOR+GBL, 8 uM ATP, Ki apparent
[5] = PC-3, read-out: IC50 value, cell proliferation
[6] = PC-3 cells stimulated with EGF, read-out: EC50 activity level, inhibition of S473 AKT phosphorylation

T2 sequence (P42345 1360-2549): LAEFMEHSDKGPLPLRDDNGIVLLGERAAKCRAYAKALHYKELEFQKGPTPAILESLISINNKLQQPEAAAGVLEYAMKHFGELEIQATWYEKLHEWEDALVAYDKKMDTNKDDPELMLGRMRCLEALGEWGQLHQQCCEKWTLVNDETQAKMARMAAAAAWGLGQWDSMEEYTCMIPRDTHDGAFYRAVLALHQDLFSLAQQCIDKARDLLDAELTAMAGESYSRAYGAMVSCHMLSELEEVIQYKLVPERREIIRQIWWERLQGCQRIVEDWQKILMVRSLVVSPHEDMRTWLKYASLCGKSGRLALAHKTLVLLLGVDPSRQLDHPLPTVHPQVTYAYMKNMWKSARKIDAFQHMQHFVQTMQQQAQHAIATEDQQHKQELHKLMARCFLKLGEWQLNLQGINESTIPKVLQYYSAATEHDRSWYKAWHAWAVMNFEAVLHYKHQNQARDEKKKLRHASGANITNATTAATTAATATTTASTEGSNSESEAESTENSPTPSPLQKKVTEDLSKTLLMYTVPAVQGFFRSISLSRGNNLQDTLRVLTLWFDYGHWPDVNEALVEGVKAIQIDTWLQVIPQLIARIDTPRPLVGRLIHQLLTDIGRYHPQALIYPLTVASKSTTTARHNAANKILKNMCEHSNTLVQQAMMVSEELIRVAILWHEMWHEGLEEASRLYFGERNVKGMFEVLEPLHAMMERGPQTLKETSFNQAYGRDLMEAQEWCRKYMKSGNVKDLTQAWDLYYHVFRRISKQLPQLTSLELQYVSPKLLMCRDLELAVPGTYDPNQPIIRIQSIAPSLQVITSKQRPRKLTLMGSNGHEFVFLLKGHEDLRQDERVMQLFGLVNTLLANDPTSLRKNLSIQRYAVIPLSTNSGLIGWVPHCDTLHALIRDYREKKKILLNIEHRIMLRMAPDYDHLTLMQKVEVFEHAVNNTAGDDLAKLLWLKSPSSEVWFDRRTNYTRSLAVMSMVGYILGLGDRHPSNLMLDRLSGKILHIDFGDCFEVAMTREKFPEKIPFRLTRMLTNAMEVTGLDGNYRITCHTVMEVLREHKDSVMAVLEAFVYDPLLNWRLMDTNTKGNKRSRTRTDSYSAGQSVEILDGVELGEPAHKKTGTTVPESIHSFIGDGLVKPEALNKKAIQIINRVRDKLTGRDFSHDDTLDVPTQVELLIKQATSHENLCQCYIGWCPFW
T2 sequence (Q9BVC4 whole entry partner): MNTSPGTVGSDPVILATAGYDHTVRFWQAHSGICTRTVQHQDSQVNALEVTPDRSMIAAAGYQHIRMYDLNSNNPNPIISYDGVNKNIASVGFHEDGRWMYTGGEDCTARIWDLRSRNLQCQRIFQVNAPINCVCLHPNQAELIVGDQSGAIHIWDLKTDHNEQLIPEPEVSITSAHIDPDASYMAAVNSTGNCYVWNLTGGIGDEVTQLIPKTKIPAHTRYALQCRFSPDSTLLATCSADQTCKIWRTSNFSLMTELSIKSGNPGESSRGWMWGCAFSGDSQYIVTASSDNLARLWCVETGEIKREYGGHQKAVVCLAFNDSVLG
T1 sequence (P42336 whole entry, species assumed): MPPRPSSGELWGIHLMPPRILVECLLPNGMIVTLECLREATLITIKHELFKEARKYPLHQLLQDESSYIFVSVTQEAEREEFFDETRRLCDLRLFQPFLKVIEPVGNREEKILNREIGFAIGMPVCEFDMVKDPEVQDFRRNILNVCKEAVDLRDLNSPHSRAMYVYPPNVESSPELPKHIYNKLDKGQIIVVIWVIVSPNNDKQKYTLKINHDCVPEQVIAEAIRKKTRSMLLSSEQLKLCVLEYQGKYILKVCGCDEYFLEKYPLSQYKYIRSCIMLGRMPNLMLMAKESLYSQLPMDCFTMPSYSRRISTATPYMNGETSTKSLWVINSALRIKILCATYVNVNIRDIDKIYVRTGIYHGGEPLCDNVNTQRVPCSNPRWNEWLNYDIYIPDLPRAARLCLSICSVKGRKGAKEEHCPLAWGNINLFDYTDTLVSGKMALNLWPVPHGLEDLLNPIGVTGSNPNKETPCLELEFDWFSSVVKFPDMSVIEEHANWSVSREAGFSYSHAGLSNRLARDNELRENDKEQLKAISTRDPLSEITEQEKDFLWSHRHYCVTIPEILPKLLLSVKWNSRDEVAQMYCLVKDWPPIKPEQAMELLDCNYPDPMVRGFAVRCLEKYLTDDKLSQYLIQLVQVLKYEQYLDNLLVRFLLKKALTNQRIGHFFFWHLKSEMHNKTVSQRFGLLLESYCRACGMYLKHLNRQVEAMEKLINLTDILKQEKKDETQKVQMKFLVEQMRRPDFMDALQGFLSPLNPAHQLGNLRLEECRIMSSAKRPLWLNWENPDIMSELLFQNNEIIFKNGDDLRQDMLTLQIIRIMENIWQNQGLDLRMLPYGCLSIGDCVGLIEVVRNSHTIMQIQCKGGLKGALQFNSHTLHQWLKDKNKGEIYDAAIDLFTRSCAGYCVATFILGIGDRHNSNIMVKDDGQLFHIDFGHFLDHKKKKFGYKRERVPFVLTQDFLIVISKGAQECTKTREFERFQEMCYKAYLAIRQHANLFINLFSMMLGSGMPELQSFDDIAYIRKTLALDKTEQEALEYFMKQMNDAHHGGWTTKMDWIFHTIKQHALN
T1 sequence (P27986 whole entry partner, species assumed): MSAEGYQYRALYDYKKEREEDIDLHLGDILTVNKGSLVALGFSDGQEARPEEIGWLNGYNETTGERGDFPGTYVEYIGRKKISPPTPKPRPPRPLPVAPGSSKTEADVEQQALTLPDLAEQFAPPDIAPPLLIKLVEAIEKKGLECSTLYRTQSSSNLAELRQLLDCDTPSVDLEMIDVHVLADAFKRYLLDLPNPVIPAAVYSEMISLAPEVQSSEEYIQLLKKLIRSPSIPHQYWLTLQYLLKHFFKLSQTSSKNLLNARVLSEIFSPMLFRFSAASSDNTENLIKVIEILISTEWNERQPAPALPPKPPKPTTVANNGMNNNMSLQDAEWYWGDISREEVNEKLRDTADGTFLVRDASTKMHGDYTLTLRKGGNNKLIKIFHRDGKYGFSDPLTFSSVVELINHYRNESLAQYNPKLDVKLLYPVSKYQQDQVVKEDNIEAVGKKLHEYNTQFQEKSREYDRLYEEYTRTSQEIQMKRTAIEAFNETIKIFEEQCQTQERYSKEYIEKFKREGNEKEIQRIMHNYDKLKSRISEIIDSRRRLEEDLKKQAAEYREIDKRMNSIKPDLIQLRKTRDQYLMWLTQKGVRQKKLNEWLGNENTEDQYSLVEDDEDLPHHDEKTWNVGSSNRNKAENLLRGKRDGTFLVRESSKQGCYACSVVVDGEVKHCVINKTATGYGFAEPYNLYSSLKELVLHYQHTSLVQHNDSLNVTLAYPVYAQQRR

`CCNC(=O)Nc1ccc(-c2nc(N3CCOC[C@@H]3C)c3ncn(CC)c3n2)cc1` [(S)-1-ethyl-3-(4-(9-ethyl-6-(3-methylmorpholino)-9H-purin-2-yl)phenyl)urea, reference compound] was tested, and the “selectivity for mTOR kinase over related PI3 kinase (PI3K-alpha)” value (“selectivity for mTOR kinase” for short) (PI3K-alpha) was 45 ×.
`CCNC(=O)Nc1ccc(-c2nc(N3CCOC[C@@H]3C)c3ncn(C)c3n2)cc1` [(S)-1-ethyl-3-(4-(9-methyl-6-(3-methylmorpholino)-9H-purin-2-yl)phenyl)urea, reference compound] was tested, and the “selectivity for mTOR kinase” value (PI3K-alpha) was 29 ×.
Work on `CCNC(=O)Nc1ccc(-c2nc(N3CCOCC3)c3c(ncn3C)n2)cc1` [Compound 101, 1-ethyl-3-(4-(7-methyl-6-morpholino-7H-purin-2-yl)phenyl)urea] yielded a Ki [1] of 0.143 µM.
With `CCNC(=O)Nc1ccc(-c2nc(N3CCOC[C@@H]3C)c3c(ncn3C)n2)cc1` [Compound 102, (S)-1-ethyl-3-(4-(7-methyl-6-(3-methylmorpholino)-7H-purin-2-yl)phenyl)urea] the IC50 (PC3 cells; [3]) was 0.294 µM.
Work on `CCNC(=O)Nc1ccc(-c2nc(N3CCOC[C@H]3C)c3c(ncn3C)n2)cc1` [Compound 103, (R)-1-ethyl-3-(4-(7-methyl-6-(3-methylmorpholino)-7H-purin-2-yl)phenyl)urea] yielded an IC50 (PC3 cells; [3]) of 10 µM.
For `CCNC(=O)Nc1ccc(-c2nc(N3CCOC[C@@H]3CC)c3c(ncn3C)n2)cc1` [Compound 104, (S)-1-ethyl-3-(4-(6-(3-ethylmorpholino)-7-methyl-7H-purin-2-yl)phenyl)urea], the IC50 (PC3 cells; [3]) was 0.737 µM, the EC50 ([2]; PC-3, read-out: EC50 activity level, inhibition of S473 AKT phosphorylation) was 0.069 µM and the Ki [1, 4] was 0.004 µM.
In the case of `CCNC(=O)Nc1ccc(-c2nc(N3CCCOCC3)c3c(ncn3C)n2)cc1` [Compound 105, 1-ethyl-3-(4-(7-methyl-6-(1,4-oxazepan-4-yl)-7H-purin-2-yl)phenyl)urea], the Ki [1, 4] is reported as 0.121 µM.
For `CCNC(=O)Nc1ccc(-c2nc(N3CCOC[C@@H]3C)c3c(ncn3CC)n2)cc1` [Compound 106, (S)-1-ethyl-3-(4-(7-ethyl-6-(3-methylmorpholino)-7H-purin-2-yl)phenyl)urea], the IC50 (PC3 cells; [5]) was 4.2 µM, the EC50 [2, 6] was 0.511 µM and the “selectivity for mTOR kinase” value (PI3K-alpha) was 250 ×. For the same molecule, the Ki [1, 4] was 0.04 µM.
`CCCCc1nc2nc(-c3ccc(NC(=O)NCC)cc3)nc(N3CCOC[C@@H]3C)c2n1C` [Compound 107, (S)-1-(4-(8-butyl-7-methyl-6-(3-methylmorpholino)-7H-purin-2-yl)phenyl)-3-ethylurea] showed an IC50 (PC3 cells; [3]) of 2.4 µM and a Ki [1] of 0.053 µM.
`CCNC(=O)Nc1ccc(-c2nc(N3CCOC[C@@H]3C)c3c(n2)nc(C(C)(C)O)n3C)cc1` [Compound 108, (S)-1-ethyl-3-(4-(8-(2-hydroxypropan-2-yl)-7-methyl-6-(3-methylmorpholino)-7H-purin-2-yl)phenyl)urea] was tested, and the IC50 (PC3 cells; [5]) was 8 µM, the EC50 [2, 6] was 3.5 µM and the Ki [1, 4] was 0.03 µM.
`CCNC(=O)Nc1ccc(-c2nc(N3C[C@@H]4C[C@H]3CO4)c3c(cnn3C)n2)cc1` [Compound 109, 1-(4-(7-((1S,4S)-2-oxa-5-azabicyclo[2.2.1]heptan-5-yl)-1-methyl-1H-pyrazolo[4,3-d]pyrimidin-5-yl)phenyl)-3-ethylurea] gave an IC50 (PC3 cells; [5]) of 0.399 µM and a Ki [1] of 0.008 µM.
`CCNC(=O)Nc1ccc(-c2nc(N3CCOC[C@@H]3C)c3c(cnn3C)n2)cc1` [Compound 110, (S)-1-ethyl-3-(4-(1-methyl-7-(3-methylmorpholino)-1H-pyrazolo[4,3-d]pyrimidin-5-yl)phenyl)urea] was tested, and the IC50 (PC3 cells; [5]) was 0.131 µM, the “selectivity for mTOR kinase” value (PI3K-alpha) was 1250 × and the Ki [1] was 0.001 µM.
`CCNC(=O)Nc1ccc(-c2nc(N3CCOC[C@@H]3CC)c3c(cnn3C)n2)cc1` [Compound 111, (S)-1-ethyl-3-(4-(7-(3-ethylmorpholino)-1-methyl-1H-pyrazolo[4,3-d]pyrimidin-5-yl)phenyl)urea] was tested, and the IC50 (PC3 cells; [3]) was 2.9 µM and the Ki [1] was 0.028 µM.
Molecule `CCNC(=O)Nc1ccc(-c2nc(N3CCOC[C@@H]3CC)c3c(n2)c(C)nn3C)cc1` [Compound 112, (S)-1-ethyl-3-(4-(7-(3-ethylmorpholino)-1,3-dimethyl-1H-pyrazolo[4,3-d]pyrimidin-5-yl)phenyl)urea] has an IC50 (PC3 cells; [3]) of 0.086 µM and a Ki [1, 4] of 0.002 µM.
`C[C@H]1COCCN1c1nc(-c2ccc(NC(=O)NC3COC3)cc2)nc2cnn(C)c12` [Compound 113, (S)-1-(4-(1-methyl-7-(3-methylmorpholino)-1H-pyrazolo[4,3-d]pyrimidin-5-yl)phenyl)-3-(oxetan-3-yl)urea] gave an IC50 (PC3 cells; [3]) of 5.9 µM and a Ki [1] of 0.039 µM.
Work on `C[C@H]1COCCN1c1nc(-c2ccc(NC(=O)NCCS(C)(=O)=O)cc2)nc2cnn(C)c12` [Compound 114, (S)-1-(4-(1-methyl-7-(3-methylmorpholino)-1H-pyrazolo[4,3-d]pyrimidin-5-yl)phenyl)-3-(2-(methylsulfonyl)ethyl)urea] yielded a Ki [1] of 0.145 µM.
